Laboratory results: patent US20260034123A1 (Cedilla Therapeutics, Inc., priority 2022, published 2026)

Legend:
Kuramochi cells RB-KO = assay: IncuCyte Kuramochi cell proliferation assay, RB-KO; assay type: cell-based; details: 72 hours, cell count, batch mean
Procedure, shortened: (§1)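 GI50 was derived by curve-fitting DMSO-normalized fold change in nuclear count between 0 and 72 h. Counts came from images of Kuramochi cells carrying mApple-H2B. Compounds were dosed over 10 points at 1/2-log spacing from a 20 µM top concentration.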

CDK2/Cyclin E1 = CDK2/Cyclin E1 (Homo sapiens, UniProt P24941); assay: ADP-Glo Luminescent Kinase Assay (CDK2/E1-37C); assay type: biochemical; details: 0.18 nM CDK2/Cyclin E1, 100 μM ATP, Histone H1, 37° C.; read-out: ADPGLO (CDK2/E1-37C): IC50
Procedure, shortened: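 IC50 fitted by four-parameter equation from ADP-Glo luminescence converted to % activity. Compounds were preincubated 60 min at 37 °C with enzyme, then kinase reaction ran 90 min at 37 °C with 0.18 nM enzyme, 100 μM ATP, Histone H1 ([…]), pH 7.5 HEPES, Mg2+, DTT.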

Kuramochi cells RB-WT = assay: IncuCyte Kuramochi cell proliferation assay, RB-WT; assay type: cell-based; details: 72 hours, cell count
Procedure, shortened: as §1

SMILES | IC50 (CDK2/Cyclin E1) [µM] | IC50 (Kuramochi cells RB-KO) [µM] | IC50 (Kuramochi cells RB-WT) [µM]
NC(=O)c1c(COC[C@@H]2CN(c3cc(F)c(F)c4ncsc34)CC23CN(C(=O)C2(C(F)(F)F)CC2)C3)cccc1C1CCC(F)(F)CC1 [I′-33, 2-(((6-(4,5-difluorobenzo[d]thiazol-7-yl)-2-(1-(trifluoromethyl)cyclopropane-1-carbonyl)-2,6-diazaspiro[3.4]octan-8-yl)methoxy)methyl)-6-(4,4-difluorocyclohexyl)benzamide] | ≤ 0.5 | > 10 | > 10
CC1(C)C[C@@H]1C(=O)N1CC2(CN(C(=O)c3cnn(Cc4ccc(F)cc4)c3)C[C@H]2COCc2cccc(C3CCC(F)(F)CC3)c2-c2nn[nH]n2)C1 [I′-43, ((S)-8-(((3-(4,4-difluorocyclohexyl)-2-(2H-tetrazol-5-yl)benzyl)oxy)methyl)-2-((S)-2,2-dimethylcyclopropane-1-carbonyl)-2,6-diazaspiro[3.4]octan-6-yl)(1-(4-fluorobenzyl)-1H-pyrazol-4-yl)methanone] | ≤ 0.5 | 5 to 10 | ≤ 0.5
CC(C)(C(=O)N1CC2(CN(C(=O)c3cnn(Cc4ccc(F)cc4)c3)C[C@H]2COCc2cccc(-c3ccc(C(F)(F)F)s3)c2C(=O)O)C1)C(F)(F)F [I′-66, (S)-2-(((6-(1-(4-fluorobenzyl)-1H-pyrazole-4-carbonyl)-2-(3,3,3-trifluoro-2,2-dimethylpropanoyl)-2,6-diazaspiro[3.4]octan-8-yl)methoxy)methyl)-6-(5-(trifluoromethyl)thiophen-2-yl)benzoic acid] | ≤ 0.5 | > 10 | ≤ 0.5
O=C(O)c1c(O)cc(COCC2CN(C(=O)c3cnn(Cc4ccc(C(F)(F)F)cc4)c3)CC23CN(C(=O)C2(C(F)(F)F)CC2)C3)cc1C1CCC(F)(F)CC1 (stereo not drawn) [I′-82] | 5 to 10 | > 10 | > 10
CC1(C)C[C@@H]1C(=O)N1CC2(CN(C(=O)c3cnn(Cc4ccc(F)cc4)c3)CC2COCc2cccc(Br)c2C(=O)O)C1 (stereo partly drawn) [I′-81] | 0.5 to 5 | > 10 | > 10

More lines, main results first:

IC50 (CDK2/Cyclin E1) [µM] | SMILES | IC50 (Kuramochi cells RB-KO) [µM] | IC50 (Kuramochi cells RB-WT) [µM]
≤ 0.5 | CC(C)(C(=O)N1CC2(CN(C(=O)c3cnn(Cc4cc(F)cc(F)c4)c3)C[C@H]2COCc2cccc(C3CCC(F)(F)CC3)c2C(=O)O)C1)C(F)(F)F [I′-45, (S)-2-(((6-(1-(3,5-difluorobenzyl)-1H-pyrazole-4-carbonyl)-2-(3,3,3-trifluoro-2,2-dimethylpropanoyl)-2,6-diazaspiro[3.4]octan-8-yl)methoxy)methyl)-6-(4,4-difluorocyclohexyl)benzoic acid] | > 10 | 0.5 to 5
0.5 to 5 | O=C(O)c1c(COC[C@H]2CN(c3cc(F)c(F)c4ncsc34)CC23CN(C(=O)C2(C(F)(F)F)CC2)C3)cccc1C1CCC(F)(F)CC1 [I′-62] | > 10 | > 10
≤ 0.5 | CN(C)S(=O)(=O)NC(=O)c1c(COC[C@@H]2CN(C(=O)c3cnn(Cc4ccc(F)cc4)c3)CC23CN(C(=O)[C@H]2CC2(C)C)C3)cccc1C1CCC(F)(F)CC1 [I′-65, 2-(4,4-difluorocyclohexyl)-6-((((S)-2-((S)-2,2-dimethylcyclopropane-1-carbonyl)-6-(1-(4-fluorobenzyl)-1H-pyrazole-4-carbonyl)-2,6-diazaspiro[3.4]octan-8-yl)methoxy)methyl)-N—(N,N-dimethylsulfamoyl)benzamide] | > 10 | > 10
≤ 0.5 | O=C(O)c1ccccc1Cn1cc(C(=O)N2CC(COCc3cccc(C4CCC(C(F)(F)F)CC4)c3OC(F)F)C3(C2)CN(C(=O)C2(C(F)(F)F)CC2)C3)cn1 (stereo not drawn) [I′-74, 2-((4-(8-(((2-(difluoromethoxy)-3-(4-(trifluoromethyl)cyclohexyl)benzyl)oxy)methyl)-2-(1-(trifluoromethyl)cyclopropane-1-carbonyl)-2,6-diazaspiro[3.4]octane-6-carbonyl)-1H-pyrazol-1-yl)methyl)benzoic acid] | > 10 | > 10
